Laboratory results from patent US9249129B2, “Morpholino substituted urea derivatives as mTOR inhibitors” (CELLZOME LIMITED, priority 2010, dated 2016).

Key:
Assay in all cases: kinobeads assay with mass spectrometry detection of kinases (kinase selectivity profile)
Format in all cases: binding
kinases (kinome) [1] = target: T1, kinases (kinome) (Homo sapiens, UniProt Q16539); settings: p38a (CMGC), IPI00221141
T1 construct: determined in kinobeads assays with mass spectrometry detection of kinases as described previously; endogenous in cells; host or cells: cell lysate
Excerpt: (§1) The protein kinase complement of the human genome (the kinome) was described previously (Manning et al., 2002. Science 298(5600):1912-1934). Sequence accession numbers are defined by the International Protein Index (IPI) (Kersey et al., 2004. Proteomics 4(7):1985-1988).

kinases (kinome) [2] = target: T2, kinases (kinome) (Homo sapiens, UniProt Q9UHD2); settings: TBK1 (Other), IPI00293613
T2 construct: determined in kinobeads assays with mass spectrometry detection of kinases as described previously; endogenous in cells; host or cells: cell lysate
T2 sequence (Q9UHD2 1-729): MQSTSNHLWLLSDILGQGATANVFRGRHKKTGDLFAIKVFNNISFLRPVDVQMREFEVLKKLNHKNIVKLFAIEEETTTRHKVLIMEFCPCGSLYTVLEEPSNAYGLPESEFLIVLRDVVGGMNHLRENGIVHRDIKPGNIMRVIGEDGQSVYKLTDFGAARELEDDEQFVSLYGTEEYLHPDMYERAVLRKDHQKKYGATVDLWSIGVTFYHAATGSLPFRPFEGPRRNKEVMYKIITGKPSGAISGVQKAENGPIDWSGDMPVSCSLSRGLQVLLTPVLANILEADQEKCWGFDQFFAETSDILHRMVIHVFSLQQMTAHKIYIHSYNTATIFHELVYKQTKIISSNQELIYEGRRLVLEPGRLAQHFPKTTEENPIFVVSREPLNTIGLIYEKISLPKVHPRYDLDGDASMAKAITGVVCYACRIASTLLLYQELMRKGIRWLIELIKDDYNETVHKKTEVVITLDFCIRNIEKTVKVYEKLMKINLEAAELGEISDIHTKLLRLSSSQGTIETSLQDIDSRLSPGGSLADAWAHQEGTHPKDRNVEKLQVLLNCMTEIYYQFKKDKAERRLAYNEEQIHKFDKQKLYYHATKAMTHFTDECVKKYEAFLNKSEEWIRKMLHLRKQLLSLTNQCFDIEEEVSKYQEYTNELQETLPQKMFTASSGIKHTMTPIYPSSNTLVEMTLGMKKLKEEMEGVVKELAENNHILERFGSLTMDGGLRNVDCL
Excerpt: as §1

kinases (kinome) [3] = target: T3, kinases (kinome) (Homo sapiens, UniProt Q13315); settings: ATM (Atypical), IPI00298306
T3 construct: determined in kinobeads assays with mass spectrometry detection of kinases as described previously; endogenous in cells; host or cells: cell lysate
Excerpt: as §1

kinases (kinome) [4] = target: T4, kinases (kinome) (Homo sapiens, UniProt P43405); settings: SYK (TK), IPI00018597
T4 construct: determined in kinobeads assays with mass spectrometry detection of kinases as described previously; endogenous in cells; host or cells: cell lysate
Excerpt: as §1

kinases (kinome) [5] = target: T5, kinases (kinome) (Homo sapiens, UniProt P07948); settings: LYN (TK), IPI00298625
T5 construct: determined in kinobeads assays with mass spectrometry detection of kinases as described previously; endogenous in cells; host or cells: cell lysate
Excerpt: as §1

kinases (kinome) [6] = target: T6, kinases (kinome) (Homo sapiens, UniProt P27361); settings: Erk1 (CMGC), IPI00018195
T6 construct: determined in kinobeads assays with mass spectrometry detection of kinases as described previously; endogenous in cells; host or cells: cell lysate
Excerpt: as §1

kinases (kinome) [7] = target: T7, kinases (kinome) (Homo sapiens, UniProt Q14680); settings: MELK (CAMK), IPI00006471
T7 construct: determined in kinobeads assays with mass spectrometry detection of kinases as described previously; endogenous in cells; host or cells: cell lysate
Excerpt: as §1

kinases (kinome) [8] = target: T8, kinases (kinome) (Homo sapiens, UniProt Q9HCP0); settings: CK1g1 (CK1), IPI00791893
T8 construct: determined in kinobeads assays with mass spectrometry detection of kinases as described previously; endogenous in cells; host or cells: cell lysate
Excerpt: as §1

kinases (kinome) [9] = target: T9, kinases (kinome) (Homo sapiens, UniProt P25440); settings: BRD2 (Atypical), IPI00440502
T9 construct: determined in kinobeads assays with mass spectrometry detection of kinases as described previously; endogenous in cells; host or cells: cell lysate
Excerpt: as §1

kinases (kinome) [10] = target: T10, kinases (kinome) (Homo sapiens, UniProt Q96GD4); settings: AurB (Other), IPI00796914
T10 construct: determined in kinobeads assays with mass spectrometry detection of kinases as described previously; endogenous in cells; host or cells: cell lysate
Excerpt: as §1

kinases (kinome) [11] = target: T11, kinases (kinome) (Homo sapiens, UniProt P19784); settings: CK2a2 (Other), IPI00020602
T11 construct: determined in kinobeads assays with mass spectrometry detection of kinases as described previously; endogenous in cells; host or cells: cell lysate
Excerpt: as §1

kinases (kinome) [12] = target: T12, kinases (kinome) (Homo sapiens, UniProt Q96RR4); settings: CaMKK2 (Other), IPI00290239
T12 construct: determined in kinobeads assays with mass spectrometry detection of kinases as described previously; endogenous in cells; host or cells: cell lysate
Excerpt: as §1

kinases (kinome) [13] = target: T13, kinases (kinome) (Homo sapiens, UniProt P49674); settings: CK1e (CK1), IPI00027729
T13 construct: determined in kinobeads assays with mass spectrometry detection of kinases as described previously; endogenous in cells; host or cells: cell lysate
Excerpt: as §1

kinases (kinome) [14] = target: T14, kinases (kinome) (Homo sapiens, UniProt P29597); settings: TYK2 (TK), IPI00022353
T14 construct: determined in kinobeads assays with mass spectrometry detection of kinases as described previously; endogenous in cells; host or cells: cell lysate
Excerpt: as §1

kinases (kinome) [15] = target: T15, kinases (kinome) (Homo sapiens, UniProt P28482); settings: Erk2 (CMGC), IPI00003479
T15 construct: determined in kinobeads assays with mass spectrometry detection of kinases as described previously; endogenous in cells; host or cells: cell lysate
Excerpt: as §1

kinases (kinome) [16] = target: T16, kinases (kinome) (Homo sapiens, UniProt Q7KZI7); settings: MARK2 (CAMK), IPI00555838
T16 construct: determined in kinobeads assays with mass spectrometry detection of kinases as described previously; endogenous in cells; host or cells: cell lysate
Excerpt: as §1

kinases (kinome) [17] = target: T17, kinases (kinome) (Homo sapiens, UniProt Q99640); settings: MYT1 (Other), IPI00909627
T17 construct: determined in kinobeads assays with mass spectrometry detection of kinases as described previously; endogenous in cells; host or cells: cell lysate
T17 sequence (Q99640 1-499): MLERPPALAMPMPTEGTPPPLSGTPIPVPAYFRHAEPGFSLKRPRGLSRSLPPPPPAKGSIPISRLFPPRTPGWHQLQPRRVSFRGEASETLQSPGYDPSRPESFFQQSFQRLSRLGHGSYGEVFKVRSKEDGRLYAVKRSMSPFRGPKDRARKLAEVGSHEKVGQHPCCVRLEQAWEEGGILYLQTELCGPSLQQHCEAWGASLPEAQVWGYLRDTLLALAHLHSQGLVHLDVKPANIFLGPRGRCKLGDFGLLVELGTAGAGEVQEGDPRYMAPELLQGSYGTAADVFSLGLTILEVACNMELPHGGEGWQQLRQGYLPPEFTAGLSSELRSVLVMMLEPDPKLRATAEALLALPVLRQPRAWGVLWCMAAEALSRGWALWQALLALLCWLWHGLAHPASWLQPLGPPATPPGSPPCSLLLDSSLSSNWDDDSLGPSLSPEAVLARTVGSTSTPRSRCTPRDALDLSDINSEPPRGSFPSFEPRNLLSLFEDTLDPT
Excerpt: as §1

kinases (kinome) [18] = target: T18, kinases (kinome) (Homo sapiens, UniProt Q13131); settings: AMPKa1 (CAMK), IPI00410287
T18 construct: determined in kinobeads assays with mass spectrometry detection of kinases as described previously; endogenous in cells; host or cells: cell lysate
Excerpt: as §1

kinases (kinome) [19] = target: T19, kinases (kinome) (Homo sapiens, UniProt Q8NI60); settings: ADCK3 (Atypical), IPI00176469
T19 construct: determined in kinobeads assays with mass spectrometry detection of kinases as described previously; endogenous in cells; host or cells: cell lysate
Excerpt: as §1

Measured: IC50

T16 sequence (Q7KZI7 whole entry): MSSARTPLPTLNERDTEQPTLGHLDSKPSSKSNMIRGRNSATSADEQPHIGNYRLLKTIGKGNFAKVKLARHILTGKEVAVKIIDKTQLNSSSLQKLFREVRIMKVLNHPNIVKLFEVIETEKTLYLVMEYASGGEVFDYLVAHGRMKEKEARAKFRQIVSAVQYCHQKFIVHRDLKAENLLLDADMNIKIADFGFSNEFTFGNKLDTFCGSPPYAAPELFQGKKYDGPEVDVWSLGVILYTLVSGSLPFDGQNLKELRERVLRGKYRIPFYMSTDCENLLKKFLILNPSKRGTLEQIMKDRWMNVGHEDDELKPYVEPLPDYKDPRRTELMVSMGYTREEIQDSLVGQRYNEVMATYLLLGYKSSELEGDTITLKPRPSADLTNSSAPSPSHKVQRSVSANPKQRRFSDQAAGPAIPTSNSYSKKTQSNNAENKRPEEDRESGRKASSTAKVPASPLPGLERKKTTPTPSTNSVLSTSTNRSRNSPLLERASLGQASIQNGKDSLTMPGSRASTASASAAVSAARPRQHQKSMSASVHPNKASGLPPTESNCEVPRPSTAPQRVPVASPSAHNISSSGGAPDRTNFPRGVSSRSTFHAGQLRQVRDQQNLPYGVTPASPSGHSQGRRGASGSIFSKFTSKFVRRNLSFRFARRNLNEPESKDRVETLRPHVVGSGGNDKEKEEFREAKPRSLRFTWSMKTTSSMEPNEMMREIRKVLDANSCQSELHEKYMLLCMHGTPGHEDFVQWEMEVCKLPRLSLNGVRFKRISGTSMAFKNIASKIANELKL
T15 sequence (P28482 whole entry): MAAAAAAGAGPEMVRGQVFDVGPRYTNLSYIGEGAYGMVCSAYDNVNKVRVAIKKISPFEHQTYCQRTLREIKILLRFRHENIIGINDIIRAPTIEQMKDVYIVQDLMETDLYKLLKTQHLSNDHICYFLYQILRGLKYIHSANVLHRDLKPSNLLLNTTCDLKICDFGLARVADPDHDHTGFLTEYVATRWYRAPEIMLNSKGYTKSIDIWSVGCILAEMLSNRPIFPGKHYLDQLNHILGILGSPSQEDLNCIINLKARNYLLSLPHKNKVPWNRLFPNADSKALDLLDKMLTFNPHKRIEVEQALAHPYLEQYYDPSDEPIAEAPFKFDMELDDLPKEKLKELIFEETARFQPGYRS
T7 sequence (Q14680 whole entry): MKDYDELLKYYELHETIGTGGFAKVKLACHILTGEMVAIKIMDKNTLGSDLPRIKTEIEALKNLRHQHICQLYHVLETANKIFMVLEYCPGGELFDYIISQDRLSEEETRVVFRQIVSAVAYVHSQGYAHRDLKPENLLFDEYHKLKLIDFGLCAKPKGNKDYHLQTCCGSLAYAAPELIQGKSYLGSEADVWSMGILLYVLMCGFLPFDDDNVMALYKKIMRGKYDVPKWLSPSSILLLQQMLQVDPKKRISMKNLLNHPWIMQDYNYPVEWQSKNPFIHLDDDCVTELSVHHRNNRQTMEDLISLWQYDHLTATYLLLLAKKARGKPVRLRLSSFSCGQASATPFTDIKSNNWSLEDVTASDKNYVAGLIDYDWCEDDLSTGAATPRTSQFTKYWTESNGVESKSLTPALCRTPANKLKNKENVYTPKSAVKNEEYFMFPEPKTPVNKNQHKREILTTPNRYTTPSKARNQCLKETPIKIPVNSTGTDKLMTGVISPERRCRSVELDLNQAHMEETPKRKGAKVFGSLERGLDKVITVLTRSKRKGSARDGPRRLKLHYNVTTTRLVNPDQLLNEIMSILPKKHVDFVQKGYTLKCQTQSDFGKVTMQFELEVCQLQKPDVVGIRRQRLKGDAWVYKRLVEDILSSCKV
T10 sequence (Q96GD4 whole entry): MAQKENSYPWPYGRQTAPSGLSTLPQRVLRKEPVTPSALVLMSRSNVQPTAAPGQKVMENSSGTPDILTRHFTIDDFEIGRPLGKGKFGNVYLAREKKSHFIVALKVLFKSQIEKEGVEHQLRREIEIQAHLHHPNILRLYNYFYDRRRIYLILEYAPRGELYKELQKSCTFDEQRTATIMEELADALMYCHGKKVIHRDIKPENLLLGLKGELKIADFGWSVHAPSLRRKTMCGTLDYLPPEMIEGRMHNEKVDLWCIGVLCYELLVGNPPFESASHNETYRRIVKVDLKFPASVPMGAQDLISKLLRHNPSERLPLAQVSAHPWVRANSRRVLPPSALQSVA
T19 sequence (Q8NI60 163-647): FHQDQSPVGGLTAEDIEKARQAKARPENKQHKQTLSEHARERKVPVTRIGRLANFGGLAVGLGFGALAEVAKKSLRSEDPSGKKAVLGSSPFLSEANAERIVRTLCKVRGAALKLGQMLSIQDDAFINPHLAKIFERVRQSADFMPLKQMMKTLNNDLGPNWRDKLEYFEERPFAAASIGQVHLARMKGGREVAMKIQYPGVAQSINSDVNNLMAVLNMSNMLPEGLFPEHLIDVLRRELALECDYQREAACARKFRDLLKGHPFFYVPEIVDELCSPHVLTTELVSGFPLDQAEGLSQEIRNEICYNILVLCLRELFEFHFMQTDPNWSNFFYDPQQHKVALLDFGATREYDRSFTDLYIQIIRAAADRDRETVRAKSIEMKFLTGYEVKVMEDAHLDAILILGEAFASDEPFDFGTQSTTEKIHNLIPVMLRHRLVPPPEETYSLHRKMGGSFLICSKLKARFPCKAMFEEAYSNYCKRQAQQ
T11 sequence (P19784 whole entry): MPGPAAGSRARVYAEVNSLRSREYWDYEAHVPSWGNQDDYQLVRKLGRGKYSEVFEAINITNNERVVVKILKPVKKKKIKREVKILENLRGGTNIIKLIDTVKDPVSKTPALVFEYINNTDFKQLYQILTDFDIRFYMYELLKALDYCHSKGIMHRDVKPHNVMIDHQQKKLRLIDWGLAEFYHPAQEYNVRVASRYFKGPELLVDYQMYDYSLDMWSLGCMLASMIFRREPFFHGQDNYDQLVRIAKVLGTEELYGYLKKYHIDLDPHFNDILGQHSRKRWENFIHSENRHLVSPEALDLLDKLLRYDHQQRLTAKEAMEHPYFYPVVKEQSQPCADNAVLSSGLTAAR
T1 sequence (Q16539 whole entry): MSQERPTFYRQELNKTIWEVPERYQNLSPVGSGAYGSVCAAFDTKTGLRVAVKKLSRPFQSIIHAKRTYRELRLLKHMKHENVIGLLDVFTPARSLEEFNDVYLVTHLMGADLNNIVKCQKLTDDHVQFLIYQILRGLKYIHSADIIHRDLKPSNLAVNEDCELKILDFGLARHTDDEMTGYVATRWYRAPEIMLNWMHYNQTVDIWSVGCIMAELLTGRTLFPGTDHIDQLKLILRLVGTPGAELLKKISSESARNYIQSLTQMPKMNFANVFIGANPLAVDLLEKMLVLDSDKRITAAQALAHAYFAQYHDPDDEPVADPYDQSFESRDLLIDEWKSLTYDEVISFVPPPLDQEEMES
T14 sequence (P29597 whole entry): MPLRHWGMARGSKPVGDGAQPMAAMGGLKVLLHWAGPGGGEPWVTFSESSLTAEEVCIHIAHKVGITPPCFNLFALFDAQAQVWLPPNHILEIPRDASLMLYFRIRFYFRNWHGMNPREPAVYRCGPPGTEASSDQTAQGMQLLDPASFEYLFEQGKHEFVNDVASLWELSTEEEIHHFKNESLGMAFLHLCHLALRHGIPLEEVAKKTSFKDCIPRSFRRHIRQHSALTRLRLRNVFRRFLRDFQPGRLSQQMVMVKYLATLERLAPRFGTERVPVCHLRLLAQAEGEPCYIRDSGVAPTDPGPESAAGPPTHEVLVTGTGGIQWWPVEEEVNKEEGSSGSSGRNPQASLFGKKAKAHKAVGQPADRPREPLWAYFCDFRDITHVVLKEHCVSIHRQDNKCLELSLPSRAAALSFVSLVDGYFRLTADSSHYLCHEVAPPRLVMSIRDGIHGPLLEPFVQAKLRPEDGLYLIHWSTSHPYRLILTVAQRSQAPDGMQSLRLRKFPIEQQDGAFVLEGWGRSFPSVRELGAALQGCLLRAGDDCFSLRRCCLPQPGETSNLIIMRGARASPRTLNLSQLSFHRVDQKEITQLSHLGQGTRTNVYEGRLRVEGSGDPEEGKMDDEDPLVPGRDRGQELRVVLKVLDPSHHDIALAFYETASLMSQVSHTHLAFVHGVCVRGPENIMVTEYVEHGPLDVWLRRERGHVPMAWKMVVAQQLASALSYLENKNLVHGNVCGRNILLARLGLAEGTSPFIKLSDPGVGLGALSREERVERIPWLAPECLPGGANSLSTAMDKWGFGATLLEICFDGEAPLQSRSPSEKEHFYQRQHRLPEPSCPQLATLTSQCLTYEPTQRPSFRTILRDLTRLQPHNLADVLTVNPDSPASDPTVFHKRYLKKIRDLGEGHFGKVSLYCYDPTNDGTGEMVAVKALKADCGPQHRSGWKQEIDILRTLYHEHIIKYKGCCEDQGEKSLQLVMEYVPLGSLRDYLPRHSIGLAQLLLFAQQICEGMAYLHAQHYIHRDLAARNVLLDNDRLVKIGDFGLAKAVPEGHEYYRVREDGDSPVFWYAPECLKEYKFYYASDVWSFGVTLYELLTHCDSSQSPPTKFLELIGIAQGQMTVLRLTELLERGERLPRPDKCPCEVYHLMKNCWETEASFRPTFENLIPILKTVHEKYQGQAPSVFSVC
T13 sequence (P49674 whole entry): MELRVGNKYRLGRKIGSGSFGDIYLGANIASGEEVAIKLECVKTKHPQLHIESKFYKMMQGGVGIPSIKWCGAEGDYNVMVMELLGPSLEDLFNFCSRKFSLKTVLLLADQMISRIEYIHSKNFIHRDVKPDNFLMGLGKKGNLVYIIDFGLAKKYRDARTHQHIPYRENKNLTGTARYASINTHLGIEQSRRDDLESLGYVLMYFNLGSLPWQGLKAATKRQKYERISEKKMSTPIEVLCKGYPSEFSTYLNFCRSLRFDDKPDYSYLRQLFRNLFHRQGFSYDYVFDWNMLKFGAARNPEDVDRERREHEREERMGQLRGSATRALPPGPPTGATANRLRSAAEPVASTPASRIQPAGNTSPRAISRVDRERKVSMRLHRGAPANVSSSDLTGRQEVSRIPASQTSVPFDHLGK

C[C@H]1COCCN1c1nc(-c2ccc(NC(=O)N[C@H]3CCC[C@@H]3O)cc2)cc(-c2cc(F)ccc2S(C)(=O)=O)n1 [Example 76, 1-(4-(6-(5-fluoro-2-(methylsulfonyl)phenyl)-2-((S)-3-methylmorpholino)pyrimidin-4-yl)phenyl)-3-((1S,2S)-2-hydroxycyclopentyl)urea]
> 10 µM: all assays above

C[C@H]1COCCN1c1nc(-c2ccc(NC(=O)NC3CC3)cc2)cc(-c2ccccc2S(C)(=O)=O)n1 [Example 4, (S)-1-cyclopropyl-3-(4-(2-(3-methylmorpholino)-6-(2-(methylsulfonyl)phenyl)pyrimidin-4-yl)phenyl)urea]
> 10 µM: all assays above

C[C@H]1COCCN1c1cc(-c2ccccc2S(C)(=O)=O)nc(-c2ccc(NC(=O)NC3CC3)cc2)n1 [Example 6, (S)-1-cyclopropyl-3-(4-(4-(3-methylmorpholino)-6-(2-(methylsulfonyl)phenyl)pyrimidin-2-yl)phenyl)urea]
> 10 µM: all assays above

C[C@H]1COCCN1c1cc(-c2ccccn2)nc(-c2ccc(NC(=O)NCCO)cc2)n1 [Example 43, (S)-1-(2-hydroxyethyl)-3-(4-(4-(3-methylmorpholino)-6-(pyridin-2-yl)pyrimidin-2-yl)phenyl)urea]
> 10 µM: all assays above
